For this experiment, the system named is Neonatal calvaria (hPTH (1-34)-treated). As to the kind of experiment: Inhibition of hPTH (1-34)-stimulated bone resorption in cultured neonatal rat calvaria (calcium accumulation in medium at 6 days). In kind it is cell-based, rat (Wistar). The note with it: 144 h, hPTH (1-34) 1×10^-8 M, 37° C.; for inhibition at 1 µM: Dose 1 × 10^-6 M; for inhibition at 0.1 µM: Dose 1 × 10^-7 M. The method, then:
Neonatal calvaria were dissected aseptically from 1-2 day old rat (Wistar), washed in Dulbecco's modified eagle's medium and divided along the sagittal suture. The calvaria halves were pooled and randomized in the different groups. The calvaria halves were cultured separately as free-floating bones in multi-well dishes containing a 2 ml of Dulbecco's modified eagle's medium, with 10% heat-inactivated (56° C. for 1 hr) fetal calf serum. Treatment of hPTH (1-34) (1×10^-8 M) and the Test Compound (1×10^-7 or 1×10^-6 M) was begun at zero time. All incubations were performed at 37° C., under an atmosphere of 95% air and 5% CO2 for 6 days. Bone resporption was determined by measuring the accumulation of calcium in the medium at 6 days. The concentration of total calcium in culture medium was measured by OCPC method with a spectrophotometer (Hitachi model U-3200, Tokyo, Japan).
As comparative data, similar tests were conducted using culture medium with hPTH (1×10^-8 M) only, and culture medium without both hPTH and Test Compound.
Test results were represented in terms of percentage of inhibition calculated by the following formula: [formula] CD : the concentration of total calcium in culture medium treated with both hPTH and Test Compound
CO : the concentration of total calcium in control culture medium without both hPTH and Test Compound
CP : the concentration of total calcium in culture medium treated with hPTH only

Counter-ions that a name gives are not always drawn.

Take `O=P(O)(O)C(C(=S)Nc1ccc(Cl)c(C(F)(F)F)c1)P(=O)(O)O` [Test Compound (g), Disodium salt of [N-(4-chloro-3-trifluoromethylphenyl)thiocarbamoylmethylene]bis(phosphonicacid)]: the inhibition at 1 µM worked out at 112%. The same measure, in the same setting: then `O=P(O)(O)C(C(=S)Nc1cccc(C(F)(F)F)c1)P(=O)(O)O` [Test Compound (f), Disodium salt of [N-(3-trifluoromethylphenyl)thiocarbamoylmethylene]bis(phosphonic acid)], with 68.9%; and `O=P(O)(O)C(C(=S)Nc1cc2ccccc2s1)P(=O)(O)O` [Test Compound (d), Disodium salt of [N-(2-benzo[b]thienyl)thiocarbamoylmethylene]bis(phosphonic acid)], with 59.7%. As for `O=C(NC(P(=O)(O)O)P(=O)(O)O)c1ccc2ccccc2n1` [Test Compound (j), Tris(tert-butylamine)salt of [(2-quinolinecarboxamido)methylene]bis(phosphonic acid)], the inhibition at 1 µM was found to be 53.8% and the inhibition at 0.1 µM stood at 46.9%. Take `COc1ccc(NC(=S)C(P(=O)(O)O)P(=O)(O)O)cc1C(F)(F)F` [Test Compound (h), Disodium salt of [N-(4-methoxy-3-trifluoromethylphenyl)thiocarbamoylmethylene]bis(phosphonic acid)]: the inhibition at 1 µM turned out to be 77.7%. As for `O=P(O)(O)C(C(=S)Nc1ccccc1)P(=O)(O)O` [Test Compound (a), Tris(tert-butylamine) salt of [N-(phenyl)thiocarbamoylmethylene]bis(phosphonic acid)], the inhibition at 1 µM worked out at 66.3% and the inhibition at 0.1 µM is 54.3%.

As for `O=P(O)(O)C(C(=S)Nc1ccc(Cl)cc1)P(=O)(O)O` [Test Compound (c), Tris(tert-butylamine)salt of [N-(4-chlorophenyl)thiocarbamoylmethylene]bis(phosphonic acid)], the inhibition at 1 µM was 57%. For `O=P(O)(O)C(C(=S)Nc1ccc(C(F)(F)F)cc1)P(=O)(O)O` [Test Compound (e), Disodium salt of [N-(4-trifluoromethylphenyl)thiocarbamoylmethylene]bis(phosphonic acid)], the inhibition at 1 µM came out at 65.9%.

Regarding `O=C(Nc1ccc(Cl)cc1)C(P(=O)(O)O)P(=O)(O)O` [Test Compound (b), Tris(tert-butylamine) salt of [N-(4-chlorophenyl)carbamoylmethylene]bis(phosphonic acid)], the inhibition at 1 µM stood at 56.9% and the inhibition at 0.1 µM came out at 46.6%. `O=C(NC(P(=O)(O)O)P(=O)(O)O)c1cc2ccccc2s1` [Test Compound (i), Bis(tert-butylamine)salt of [(2-benzo[b]thiophenecarboxamido)methylene]bis(phosphonic acid)]: the inhibition at 0.1 µM was determined as 45%.

Turning to `CS(=O)(=O)Nc1cccc(NC(=S)C(P(=O)(O)O)P(=O)(O)O)c1` [Test Compound (l), Disodium salt of [N-(3-mesylaminophenyl)thiocarbamoylmethylene]bis(phosphonic acid)], the inhibition at 1 µM came to 52.4%.

As to `O=P(O)(O)C(NS(=O)(=O)c1ccc(Cl)cc1)P(=O)(O)O` [Test Compound (k), Disodium salt of [(4-chlorophenyl)sulfonylaminomethylene]bis(phosphonicacid)], the inhibition at 1 µM was determined as 71%.

By inhibition is commonly meant the change of the read-out against control, counted positive when it falls.

For the origin of these results see patent US4857513A, “Diphosphonic acid compounds, processes for the preparation thereof and pharmaceutical composition comprising the same” (Fujisiwa Pharmaceutical Co., Ltd., priority 1986, dated 1989).
